Test systems include DLD-1 colon; DMS 114 small cell lung; HOP-18 NSCLC; KM20L2 colon; P388 leukemia; P388/ADR leukemia; SN12K1 renal; SNB-78 CNS; LXFL 529 NSCLC; RXF-631 renal; XF 498 CNS.
Assay in all cases: NCI tumour cell line growth inhibition, 48 h

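Assay format: 96-well plates, 48-hour exposure. Definition used: TGI = concentration required for complete inhibition of growth.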 Bounds are passed on as bounds.

On to `CCCn1cc2c3c(cccc31)C1C=C(C)CN(C)C1C2` (configuration not stated), for which the TGI in the assay with DLD-1 colon worked out at 54.3 µM; in the assay with DMS 114 small cell lung, 43.1 µM; in the assay with HOP-18 NSCLC, 50.5 µM; in the assay on KM20L2 colon, 38.8 µM; with P388 leukemia, 28.5 µM; in the assay with P388/ADR leukemia, 43.2 µM. Also, the TGI in the assay on SN12K1 renal worked out at 44.1 µM; with SNB-78 CNS, 73.4 µM.
`O=[N+]([O-])c1ccc(-c2csc(=[N+]3CCCCC3)s2)cc1`: the TGI in the assay on DLD-1 colon is over 100 µM; in the assay on DMS 114 small cell lung it was 8.03 µM; with HOP-18 NSCLC, over 100 µM; in the assay on KM20L2 colon, over 100 µM; with LXFL 529 NSCLC it was over 100 µM; in the assay with RXF-631 renal, over 100 µM. In addition, the TGI in the assay with SNB-78 CNS was over 100 µM; with XF 498 CNS, 48.1 µM.
With `CC(C)(C)c1ccnc(N=C2N=C(Nc3cc(C(C)(C)C)ccn3)c3ccccc32)c1`, the TGI in the assay with DLD-1 colon was over 100 µM; in the assay with HOP-18 NSCLC, 59.6 µM; in the assay with KM20L2 colon it was 59.6 µM; with LXFL 529 NSCLC it was over 100 µM; in the assay on SNB-78 CNS it was 75 µM; in the assay on XF 498 CNS, 38.6 µM.
As to `CN(C)CCCNC(=O)N/N=C/c1ccccc1`, the TGI with DLD-1 colon, in the assay with DMS 114 small cell lung, with HOP-18 NSCLC, in the assay with SNB-78 CNS and in the assay with XF 498 CNS was over 100 µM throughout.

The values are drawn from PubChem BioAssay (NCI).
